Experimental data as given in paper PMC9278656 (Journal of medicinal chemistry, 2021).

Legend:
[1] = read-out: KZn; order of magnitude, stated in Conclusions
Ionophore activity = details: larger number indicates weaker ionophore activity
Caco-2 permeability = type: in vitro ADME; details: human

C/C(=N\NC(=S)N1CCC1)c1ccccn1 [ZMC1, (E)-N′-(1-(Pyridin-2-yl)ethylidene)azetidine-1-carbothiohydrazide, reference compound]
Kd [1]: 10 nM | Ionophore Ji drug/Ji DMSO (Ionophore activity): 12.4 -log[mol/m^2s] | Papp at 90 min, 5 μM (Caco-2 permeability): 15.6 ± 1.3 ×10⁻⁶ cm/s
